Among the test systems are MOLT-4 leukemia; SK-MEL-28 melanoma; SF-539 CNS; TK-10 renal; U251 CNS; SW-620 colon; UO-31 renal; SK-MEL-2 melanoma; NCI-H226 lung; DU-145 prostate.
Holding throughout (experiment): inhibition of tumour cell growth, NCI panel, 48 h

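Briefly, cells in 96-well plates were exposed to five compound concentrations for 48 h, and endpoints were estimated by linear interpolation. Here, GI50 denotes the concentration required for 50% inhibition of growth. TGI denotes the concentration required for complete inhibition of growth.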

Consider `NC(=O)NN=C1Cc2ccccc2C1`, for which the TGI in the assay with MOLT-4 leukemia, in the assay on SK-MEL-28 melanoma, with SF-539 CNS, with TK-10 renal, in the assay with U251 CNS and with SW-620 colon was greater than 100 µM throughout. Further, the TGI with UO-31 renal, with SK-MEL-2 melanoma, in the assay on NCI-H226 lung and with DU-145 prostate was greater than 100 µM in each case.
Take `COc1ccc(-c2cc3cc(Cl)cc(Cl)c3oc2=O)cc1OC`: the TGI in the assay with MOLT-4 leukemia, in the assay with SK-MEL-28 melanoma, in the assay on SF-539 CNS, with TK-10 renal, with U251 CNS and in the assay with SW-620 colon was greater than 100 µM in each case. Also, the TGI in the assay on UO-31 renal, with SK-MEL-2 melanoma, in the assay with NCI-H226 lung and in the assay on DU-145 prostate was greater than 100 µM each time.
Turning to `Cc1cc(-c2cc(C(C)(C)C)c(O)c(C(C)(C)C)c2)c(C)cc1-c1cc(C(C)(C)C)c(O)c(C(C)(C)C)c1`, the TGI with MOLT-4 leukemia, with SK-MEL-28 melanoma, in the assay with SF-539 CNS, with TK-10 renal, with U251 CNS and with SW-620 colon was greater than 100 µM in each case. The TGI in the assay on UO-31 renal, in the assay on SK-MEL-2 melanoma, in the assay with NCI-H226 lung and in the assay with DU-145 prostate was greater than 100 µM throughout.
As to `CO[P@@]1(=O)O[C@@H](c2ccccc2)[C@H](O)[C@]1(O)c1ccccc1`, the TGI in the assay with MOLT-4 leukemia, in the assay with SK-MEL-28 melanoma, in the assay with SF-539 CNS, in the assay with TK-10 renal, in the assay on U251 CNS and in the assay with SW-620 colon was greater than 100 µM in each case. The TGI in the assay on UO-31 renal, with SK-MEL-2 melanoma, in the assay with NCI-H226 lung and in the assay on DU-145 prostate was greater than 100 µM throughout.
In the case of `O=C1c2cc3c(cc2-c2c1c1ccc(Cl)cc1c(=O)n2CCCn1ccnc1)OCO3`, the GI50 with MOLT-4 leukemia is less than 0.01 µM; in the assay on SK-MEL-28 melanoma, 0.158 µM; with SF-539 CNS, less than 0.01 µM; with TK-10 renal, 0.54 µM; in the assay on U251 CNS, less than 0.01 µM; in the assay with SW-620 colon, less than 0.01 µM. Also, the GI50 with UO-31 renal was less than 0.01 µM; with SK-MEL-2 melanoma it was 0.649 µM; in the assay on NCI-H226 lung, 0.0186 µM; in the assay with DU-145 prostate it was less than 0.01 µM. For the same molecule, the TGI in the assay on MOLT-4 leukemia is 1.17 µM; in the assay on SK-MEL-28 melanoma, greater than 100 µM; in the assay on SF-539 CNS, 0.0649 µM; in the assay on TK-10 renal it was greater than 100 µM; with U251 CNS, 11.3 µM; in the assay on SW-620 colon it was greater than 100 µM. Moreover, the TGI in the assay on UO-31 renal is greater than 100 µM; in the assay on SK-MEL-2 melanoma it was greater than 100 µM; in the assay on NCI-H226 lung it was greater than 100 µM; in the assay on DU-145 prostate, 0.282 µM.
As for `O=C1CC[C@@]23CC(=O)O[C@@H]2CCCC3C1` (stereo not given in full), the TGI in the assay on MOLT-4 leukemia, with SK-MEL-28 melanoma, with SF-539 CNS, with TK-10 renal, in the assay on U251 CNS and in the assay on SW-620 colon was greater than 100 µM each time. Besides, the TGI with UO-31 renal, in the assay on SK-MEL-2 melanoma, with NCI-H226 lung and with DU-145 prostate was greater than 100 µM throughout.
For the molecule `CC/C=N\N1C(N)=C(C#N)C(C#N)(C#N)C1CC` (stereo not given), the TGI with MOLT-4 leukemia was greater than 100 µM; with SK-MEL-28 melanoma, greater than 100 µM; with SF-539 CNS, 80.8 µM; with TK-10 renal, greater than 100 µM; in the assay with U251 CNS, greater than 100 µM; with SW-620 colon, greater than 100 µM. Moreover, the TGI with UO-31 renal, in the assay on SK-MEL-2 melanoma, with NCI-H226 lung and in the assay with DU-145 prostate was greater than 100 µM throughout.
As for `CC1=C(C(=O)OCCO[N+](=O)[O-])C(c2ccccc2[N+](=O)[O-])C(C(=O)OC(C)C)=C(C)N1` (stereo not given), the TGI was greater than 100 µM with MOLT-4 leukemia; 30.4 µM in the assay with SK-MEL-28 melanoma; 33.2 µM in the assay on SF-539 CNS; 58.4 µM in the assay on TK-10 renal; 30 µM with U251 CNS; 39.9 µM in the assay on SW-620 colon. In addition, the TGI was 26.2 µM in the assay with UO-31 renal, 30.5 µM with SK-MEL-2 melanoma, 35 µM in the assay with NCI-H226 lung and 50.4 µM in the assay with DU-145 prostate.
On to `COC1(CC[C@H](C)COC2OC(CO)C(O)C(O)C2O)O[C@H]2C[C@H]3[C@@H]4CC=C5C[C@@H](OC6OC(CO)C(OC7OC(C)C(O)C(O)C7O)C(O)C6OC6OC(C)C(O)C(O)C6O)CC[C@]5(C)[C@H]4CC[C@]3(C)[C@H]2[C@@H]1C` (stereo not given in full), for which the TGI with MOLT-4 leukemia is greater than 100 µM; in the assay on SK-MEL-28 melanoma, 15.8 µM; in the assay on SF-539 CNS it was 4.05 µM; with TK-10 renal, greater than 100 µM; in the assay on U251 CNS, 7.36 µM; with SW-620 colon, 6.78 µM. Moreover, the TGI was 6.79 µM in the assay with UO-31 renal, 13.6 µM with SK-MEL-2 melanoma, 31.7 µM in the assay with NCI-H226 lung and 5.77 µM with DU-145 prostate.
In the case of `CCOC(=O)[C@@H](Cc1ccc(CCl)cc1)NC(C)=O`, the TGI with MOLT-4 leukemia is greater than 100 µM; with SK-MEL-28 melanoma, 86.2 µM; in the assay with SF-539 CNS, 36.4 µM; in the assay on TK-10 renal, 23.4 µM; in the assay with U251 CNS, 40.5 µM; in the assay with SW-620 colon it was greater than 100 µM. Besides, the TGI is 36.4 µM with UO-31 renal, 39.6 µM in the assay on SK-MEL-2 melanoma, 98.5 µM with NCI-H226 lung and greater than 100 µM in the assay on DU-145 prostate.
For `CCN(CC)C(=S)N/N=C(/c1ccccc1)c1ccccn1`, the TGI in the assay with MOLT-4 leukemia was greater than 100 µM; in the assay on SK-MEL-28 melanoma, greater than 79.7 µM; in the assay with SF-539 CNS, 4.24 µM; in the assay with TK-10 renal it was 29 µM; in the assay on U251 CNS it was 18.8 µM; in the assay on SW-620 colon, greater than 49.4 µM. The TGI in the assay with UO-31 renal is 9.52 µM; with SK-MEL-2 melanoma it was 26.2 µM; with NCI-H226 lung, 7.65 µM; in the assay on DU-145 prostate, greater than 65.9 µM.
In the case of `CC[C@H](NC(=O)OC(C)(C)C)C(=O)NCP(=O)(OCc1ccc([N+](=O)[O-])cc1)OCc1ccc([N+](=O)[O-])cc1`, the TGI in the assay with MOLT-4 leukemia is greater than 100 µM; in the assay with SK-MEL-28 melanoma, 92.9 µM; in the assay on SF-539 CNS it was 90 µM; in the assay with TK-10 renal it was greater than 100 µM; in the assay with U251 CNS, 97.1 µM; with SW-620 colon, greater than 100 µM. In addition, the TGI with UO-31 renal is 80.2 µM; in the assay on SK-MEL-2 melanoma, greater than 100 µM; with NCI-H226 lung it was greater than 100 µM; in the assay with DU-145 prostate it was greater than 100 µM.
Consider `CC(C)(C)/C(O)=C\c1nc2cc(F)c(F)cc2[nH]c1=O`, for which the TGI in the assay with MOLT-4 leukemia, in the assay on SK-MEL-28 melanoma, with SF-539 CNS, with TK-10 renal, in the assay on U251 CNS and in the assay with SW-620 colon was greater than 100 µM each time. For the same molecule, the TGI with UO-31 renal was greater than 100 µM; in the assay on SK-MEL-2 melanoma, greater than 100 µM; in the assay on NCI-H226 lung, greater than 100 µM; in the assay on DU-145 prostate, 57 µM.
